# Data from the supplement of paper PMC7017272.
# ± gives the standard deviation of the averaged measurements.
# Experiments:
# Details in all cases: treatment time: 3 days
# [1] = system: UT-SCC-42A; assay: relative IC50 (midpoint of the fitted curve; maximal inhibition may be below 50%); higher = less potent
# Outline: (§1)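 The FIMM pipeline was used to fit percent-inhibition dose–response curves, giving IC50, maximal inhibition and drug sensitivity score. Input data were CellTiter-Glo 2.0 luminescence readings, normalised to vehicle (0.1% DMSO) and cell-killing control wells, from HPV-negative HNSCC cell lines seeded at 500 cells/well in 384-well plates. Cells sat on plastic, on Matrigel or Myogel coatings (500 µg/mL), or within Matrigel or Myogel plus rat collagen I, and received compounds at five 10-fold concentrations for 3 days.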
# [2] = system: UT-SCC-40; assay: as above
# Outline: as §1
# [3] = system: UT-SCC-24B; assay: as above
# Outline: as §1
# [4] = system: UT-SCC-8; assay: as above
# Outline: as §1
# [5] = system: UT-SCC-106A; assay: as above
# Outline: as §1
# [6] = system: UT-SCC-73; assay: as above
# Outline: as §1
# [7] = system: UT-SCC-14; assay: as above
# Outline: as §1
# [8] = system: UT-SCC-44; assay: as above
# Outline: as §1
# [9] = system: UT-SCC-81; assay: as above
# Outline: as §1
# [10] = system: UT-SCC-42B; assay: as above
# Outline: as §1
# [11] = system: UT-SCC-42A; assay: maximal % inhibition of viability relative to DMSO; higher = stronger effect
# Outline: as §1
# [12] = system: UT-SCC-40; assay: as above
# Outline: as §1
# [13] = system: UT-SCC-24B; assay: as above
# Outline: as §1
# [14] = system: UT-SCC-8; assay: as above
# Outline: as §1
# [15] = system: UT-SCC-106A; assay: as above
# Outline: as §1
# [16] = system: UT-SCC-73; assay: as above
# Outline: as §1
# [17] = system: UT-SCC-44; assay: as above
# Outline: as §1
# [18] = system: UT-SCC-28; assay: as above
# Outline: as §1
# [19] = culture condition: embedded in Matrigel
# [20] = culture condition: embedded in Myogel + collagen I
# [21] = culture condition: on top of Matrigel
# [22] = culture condition: plastic 2D (no matrix)
# [23] = culture condition: on top of Myogel
structure (smiles),measurement,setting,value
COc1cc(F)c(F)c(Nc2ccc(I)cc2F)c1NS(=O)(=O)C1(C[C@H](O)CO)CC1 [Refametinib],relative IC50,[1]; [19],36.3 nM
same,relative IC50,[1]; [20],94.1 nM
same,relative IC50,[1]; [21],20.8 nM
same,relative IC50,[1]; [22],41.5 nM
same,relative IC50,[2]; [19],15.3 nM
same,relative IC50,[2]; [20],118 nM
same,relative IC50,[2]; [21],33.5 nM
same,relative IC50,[2]; [23],83.3 nM
same,relative IC50,[2]; [22],111 nM
same,relative IC50,[3]; [19],309 nM
same,relative IC50,[3]; [20],808 nM
same,relative IC50,[3]; [21],317 nM
same,relative IC50,[3]; [23],1430 nM
same,relative IC50,[3]; [22],184 nM
same,relative IC50,[4]; [19],259 nM
same,relative IC50,[4]; [20],1760 nM
same,relative IC50,[4]; [21],410 nM
same,relative IC50,[4]; [22],602 nM
same,relative IC50,[5]; [19],15.2 nM
same,relative IC50,[5]; [21],15.5 nM
same,relative IC50,[5]; [23],498 nM
same,relative IC50,[5]; [22],25.7 nM
same,relative IC50,[6]; [19],38.5 nM
same,relative IC50,[6]; [21],31.8 nM
same,relative IC50,[6]; [23],132 nM
same,relative IC50,[6]; [22],64.4 nM
same,relative IC50,[7]; [20],238 nM
same,relative IC50,[7]; [21],146 nM
same,relative IC50,[7]; [23],299 nM
same,relative IC50,[8]; [19],56.2 nM
same,relative IC50,[8]; [20],417 nM
same,relative IC50,[8]; [21],58.4 nM
same,relative IC50,[8]; [23],569 nM
same,relative IC50,[8]; [22],61.7 nM
same,relative IC50,[9]; [19],14.2 nM
same,relative IC50,[9]; [20],924 nM
same,relative IC50,[9]; [21],61.6 nM
same,relative IC50,[9]; [22],850 nM
same,relative IC50,[10]; [19],16.6 nM
same,relative IC50,[10]; [21],79.5 nM
same,relative IC50,[10]; [23],757 nM
same,relative IC50,[10]; [22],218 nM
same,maximal % inhibition of viability,[11]; [19],61.2 ± 1.2%
same,maximal % inhibition of viability,[11]; [20],42.4 ± 6.9%
same,maximal % inhibition of viability,[11]; [21],61.9 ± 0.94%
same,maximal % inhibition of viability,[11]; [23],48.8 ± 5.2%
same,maximal % inhibition of viability,[11]; [22],58.8 ± 3.1%
same,maximal % inhibition of viability,[12]; [19],80.9 ± 2.5%
same,maximal % inhibition of viability,[12]; [20],76 ± 7.2%
same,maximal % inhibition of viability,[12]; [21],75.9 ± 1.6%
same,maximal % inhibition of viability,[12]; [23],61.23 ± 0.5%
same,maximal % inhibition of viability,[12]; [22],63.2 ± 2.9%
same,maximal % inhibition of viability,[13]; [19],72.4 ± 3.9%
same,maximal % inhibition of viability,[13]; [20],86.3 ± 3.8%
same,maximal % inhibition of viability,[13]; [21],72.9 ± 4.8%
same,maximal % inhibition of viability,[13]; [23],72.2 ± 2.3%
same,maximal % inhibition of viability,[13]; [22],84 ± 2.2%
same,maximal % inhibition of viability,[14]; [19],88.8 ± 1.6%
same,maximal % inhibition of viability,[14]; [20],74.1 ± 13%
same,maximal % inhibition of viability,[14]; [21],81.7 ± 2.5%
same,maximal % inhibition of viability,[14]; [23],73 ± 5.1%
same,maximal % inhibition of viability,[14]; [22],80.2 ± 3.9%
same,maximal % inhibition of viability,[15]; [19],53.7 ± 4.7%
same,maximal % inhibition of viability,[15]; [20],36.7 ± 3.4%
same,maximal % inhibition of viability,[15]; [21],66 ± 2.5%
same,maximal % inhibition of viability,[15]; [23],43.4 ± 3.1%
same,maximal % inhibition of viability,[15]; [22],67.33 ± 0.64%
same,maximal % inhibition of viability,[16]; [19],85.7 ± 3.9%
same,maximal % inhibition of viability,[16]; [20],73.4 ± 14%
same,maximal % inhibition of viability,[16]; [21],81.8 ± 1.5%
same,maximal % inhibition of viability,[16]; [23],72 ± 2.7%
same,maximal % inhibition of viability,[16]; [22],75.8 ± 3.1%
same,maximal % inhibition of viability,[17]; [19],90.4 ± 2.6%
same,maximal % inhibition of viability,[17]; [20],55.1 ± 5%
same,maximal % inhibition of viability,[17]; [21],73.2 ± 7%
same,maximal % inhibition of viability,[17]; [23],56.9 ± 0.9%
same,maximal % inhibition of viability,[17]; [22],62.2 ± 4.4%
same,maximal % inhibition of viability,[18]; [19],49.8 ± 4%
same,maximal % inhibition of viability,[18]; [20],33 ± 8.1%
same,maximal % inhibition of viability,[18]; [21],45.1 ± 8.6%
same,maximal % inhibition of viability,[18]; [22],23.7 ± 2%
